Target: PHD2 enzyme (residues 181-417) (Homo sapiens (Human), UniProt Q9GZT9)
Experiment: Inhibition of PHD enzyme (LC/MS peptide hydroxylation assay)
Assay type: biochemical
Conditions: PHD2 (residues 181-417) 5 nM, 60 min pre-incubation; -log(IC50), IC50 molar
Experimental: Example A Inhibition of PHD Enzyme
The IC50 values for the PHD2 enzyme (residues 181-417) were determined by mixing increasing amounts of inhibitor with a fixed amount of enzyme (5 nM, final concentration) and Biotin labeled peptide (Biotin-Asp-Leu-Glu-Met-Leu-Ala-Pro-Tyr-Ile-Pro-Met-Asp-Asp-Asp-Phe-Gln-Leu, 1 uM final concentration) and 2-Oxyglutarate (2 uM final concentration) in 50 mM HEPES, 50 mM KCl, 0.5 mM TCEP, 2 uM FeCl2, 0.1 mg/ml BSA, at pH 7.3. The reaction was conducted by pre-incubating the enzyme in the presence of inhibitor for 60 min at room temperature. The activity of the free enzyme was measured by adding the peptide, the 2-Oxoglutarate (see above for final concentrations), and Ascorbic Acid (1 mM final concentration). The enzymatic activity was quenched after 60 min by adding an excess of a tight binding inhibitor to the assay mixture. The amount of product released was measured by using a LC/MS system (Agilent HPLC with Applied Biosystems API3000 Mass Spectrometer). Data were analyzed using the classical isotherm equation for the determination of IC50 values and are pIC50, i.e., −log(IC50), where IC50 is molar concentration and are reported as pIC50, i.e., −log(IC50), where IC50 is molar concentration.

Chain of PHD2 enzyme (residues 181-417) (Q9GZT9 181-417): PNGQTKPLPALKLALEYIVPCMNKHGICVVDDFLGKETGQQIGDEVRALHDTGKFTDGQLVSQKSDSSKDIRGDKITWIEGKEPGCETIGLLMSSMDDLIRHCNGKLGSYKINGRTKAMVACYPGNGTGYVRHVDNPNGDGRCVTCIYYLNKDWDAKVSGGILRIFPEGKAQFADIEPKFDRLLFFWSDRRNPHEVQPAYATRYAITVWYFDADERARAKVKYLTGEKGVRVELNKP

Compound	PHD Inhibition (pIC50)
COc1cc(-c2cnn(-c3ccc(C(=O)NC(CO)C4CCOC4)cn3)c2O)ccn1 (centres unmarked) [Example 27, N-(2-hydroxy-1-(tetrahydrofuran-3-yl)ethyl)-6-(5-hydroxy-4-(2-methoxypyridin-4-yl)-1H-pyrazol-1-yl)nicotinamide]	6.99
COc1cc(-c2cnn(-c3ccc(C(=O)NCCCCO)cn3)c2O)ccn1 [Example 28, 6-(5-hydroxy-4-(2-methoxypyridin-4-yl)-1H-pyrazol-1-yl)-N-(4-hydroxybutyl)nicotinamide]	7.01
CCN1CCC(NC(=O)c2ccc(-n3ncc(-c4ccnc(OC)c4)c3O)nc2)CC1 [Example 37, N-(1-ethylpiperidin-4-yl)-6-(5-hydroxy-4-(2-methoxypyridin-4-yl)-1H-pyrazol-1-yl)nicotinamide]	7.4
COc1cc(-c2cnn(-c3ccc(C(=O)NCCCN(C)C)cn3)c2O)ccn1 [Example 44, N-(3-(dimethylamino)propyl)-6-(5-hydroxy-4-(2-methoxypyridin-4-yl)-1H-pyrazol-1-yl)nicotinamide]	7.3
N#Cc1ccc(-c2cnn(-c3ccc(C(=O)N[C@H]4CCNC4)cn3)c2O)cc1 [Example 73, (S)-6-(4-(4-cyanophenyl)-5-hydroxy-1H-pyrazol-1-yl)-N-(pyrrolidin-3-yl)nicotinamide]	7.2
CC1CCCCN1CCCNC(=O)c1ccc(-n2ncc(-c3ccc(C#N)cc3)c2O)nc1 (centres unmarked) [Example 90, 6-(4-(4-cyanophenyl)-5-hydroxy-1H-pyrazol-1-yl)-N-(3-(2-methylpiperidin-1-yl)propyl)nicotinamide]	6.95
CN1CCC(CNC(=O)c2ccc(-n3ncc(-c4ccc(C#N)cc4)c3O)nc2)C1 (centres unmarked) [Example 92, 6-(4-(4-cyanophenyl)-5-hydroxy-1H-pyrazol-1-yl)-N-((1-methylpyrrolidin-3-yl)methyl)nicotinamide]	6.87
COCCC1(NC(=O)c2ccc(-n3ncc(-c4ccc(C#N)cc4F)c3O)nc2)CC1 [Example 210, 6-(4-(4-cyano-2-fluorophenyl)-5-hydroxy-1H-pyrazol-1-yl)-N-(1-(2-methoxyethyl)cyclopropyl)nicotinamide]	8.3
CN(C)c1cc(-c2cnn(-c3ccc(C(=O)NCC4CCOCC4)cn3)c2O)ccn1 [Example 212, 6-(4-(2-(dimethylamino)pyridin-4-yl)-5-hydroxy-1H-pyrazol-1-yl)-N-((tetrahydro-2H-pyran-4-yl)methyl)nicotinamide]	6.21
Cc1cc(-c2cnn(-c3ccc(C(=O)NCC4CCOCC4)cn3)c2O)cc(C)n1 [Example 224, 6-(4-(2,6-dimethylpyridin-4-yl)-5-hydroxy-1H-pyrazol-1-yl)-N-((tetrahydro-2H-pyran-4-yl)methyl)nicotinamide]	5.83
O=C(NCC1CCOCC1)c1ccc(-n2ncc(-c3ccncc3)c2O)nc1 [Example 226, 6-(5-hydroxy-4-(pyridin-4-yl)-1H-pyrazol-1-yl)-N-((tetrahydro-2H-pyran-4-yl)methyl)nicotinamide]	6.6
COCCCN(C)C(=O)c1ccc(-n2ncc(-c3ccc(C#N)cc3OC)c2O)nc1 [Example 240, 6-(4-(4-cyano-2-methoxyphenyl)-5-hydroxy-1H-pyrazol-1-yl)-N-(3-methoxypropyl)-N-methylnicotinamide]	6.63
N#Cc1ccc(-c2cnn(-c3ccc(C(=O)NCC4CCC4)cn3)c2O)cc1 [Example 256, 6-(4-(4-cyanophenyl)-5-hydroxy-1H-pyrazol-1-yl)-N-(cyclobutylmethyl)nicotinamide]	6.72
CC1CC(CNC(=O)c2ccc(-n3ncc(-c4ccc(C#N)cc4)c3O)nc2)C1 (centres unmarked) [Example 257, 6-(4-(4-cyanophenyl)-5-hydroxy-1H-pyrazol-1-yl)-N-((3-methylcyclobutyl)methyl)nicotinamide]	7.24

— patent US10407409B2, “6-(5-hydroxy-1H-pyrazol-1-yl)nicotinamide inhibitors of PHD” (Takeda Pharmaceutical Company Limited, priority 2013, dated 2019)
